Assays:
Format in all cases: cell-based
hCB1 mutant K232A^4.41 = target: T1, hCB1 mutant K232A^4.41 (Homo sapiens, UniProt P21554, K232A); assay: pIRES G protein dissociation BRET assay, K232A mutant
T1 construct: expressed in transfected cells; host or cells: HEK293
Protocol: (§1) Mutagenesis studies using the pIRES G protein dissociation assay were performed using human embryonic kidney 293 (HEK293) wild-type cells transiently transfected with pplss-3HA-hCB1 [31] or modified receptor. All cells were cultured in Dulbecco’s Modified Eagle’s Medium (DMEM) supplemented with 10% fetal bovine serum (FBS), grown in […] vented-cap flasks, and maintained in a 37° C incubator at 5% CO2.
(§2) Mutants of pplss-3HA-hCB1 (WT, pEF-V4-HisA (pEF4a) construct) were generated using a modified QuikChange® (Stratagene, San Diego, CA, USA) site-directed mutagenesis approach using KAPA HiFi Hotstart Polymerase (KAPA Biosystems, Roche, Basel, Switzerland). Briefly, single-stranded primers used to modify one or two base pairs within the target amino acid using PCR were purchased from Integrated DNA Technologies (IDT, Coralville, IA, USA). All pplss-hCB1 mutants were generated using the pplss-3HA-hCB1 pEF4a as parental DNA. PCR products were generated using recommended cycling conditions and treated with Dpn1 (New England Biolabs, Ipswich, MA, USA) overnight at 37° C to digest methylated parental DNA. PCR products were electrophoresed and run on an agarose gel (1% (w.v^−1) agarose, HydraGene, Piscataway, NJ, USA) containing 0.25 μg/mL ethidium bromide (Sigma-Aldrich, St. Louis, MO, USA). Gels were run in 40 mM TRIS-acetate buffer containing […] (pH 8.3) at 100 V for 30 min, maximum current and included a 1kb+ DNA ladder (Invitrogen, Thermo Fisher Scientific, Carlsbad, CA, USA) for reference. Gels were imaged using an UVTech Alliance Q9 Mini transilluminator (UVTech Alliance, Cambridge, UK). Digested products were then used to transform NEB 5α competent E. coli cells in accordance with manufacturer’s instructions. Briefly, transformed PCR products were grown overnight on 8.5 mL Luria Broth agar plates (containing 100 μg/mL ampicillin) at 37° C. Single bacterial colonies were picked and inoculated in Luria Broth (containing 100 μg/mL ampicillin) and grown overnight in a shaking incubator at 37° C. Plasmids were then harvested and purified using a Qiagen miniprep kit (Qiagen, Hilden, Germany) and validated using sequencing (Genetics Analysis Service, University of Otago, Dunedin, New Zealand).
(§3) Dissociation of the G protein heterotrimer, specifically Gαi1, Gβ1, and Gγ2, was investigated using a bioluminescence resonance energy transfer (BRET) assay with the pIRES biosensor first described by and adapted by.
(§4) Briefly, 3 × 10^6 WT HEK293 cells were seeded into 10 cm culture dishes (Corning, Corning, NY, USA; one dish for the control receptor and one for each modified receptor) and incubated at 37 °C for 24 h to gain 50–60% confluency. Culture medium was then replaced and transfection mixtures containing 3 μg pIRES vector and 1 μg receptor (either pplss-hCB1 or modified receptor) were prepared (4 μg total DNA). Plasmids were initially diluted in sterile Milli-Q water before being diluted in OptiMEM reduced serum medium (Thermo Fisher Scientific, Waltham, MA, USA) and combined with […] polyethylenimine (PEI)-max (1:9 DNA:PEI-max ratio) and incubated at room temperature for 20 min. Transfection mixtures were then added to cells via dropwise addition, and cells were incubated at 37 °C for 24 h. Transfected cells were lifted and plated at 50,000 cells/well into poly-d-lysine (PDL; Sigma-Aldrich) coated white 96-well CulturPlates (PerkinElmer, Waltham, MA, USA) and incubated for a further 24 h at 37 °C.
(§5) To assay, the culture medium was aspirated and cells were washed with phosphate buffered saline (PBS) and replaced with BRET assay medium (phenol red free DMEM containing 25 mM HEPES and supplemented with 1 mg/mL bovine serum albumin; BSA, MP Biomedicals, Auckland, New Zealand) for 30 min prior to drug addition (serum starve). Drugs were prepared at 10 × concentration in BRET assay medium, combined in a polypropylene V-bottom plate, and incubated at 37° C prior to drug stimulation.

hCB1 mutant I245A^4.54 = target: T2, hCB1 mutant I245A^4.54 (Homo sapiens, UniProt P21554, I245A); assay: pIRES G protein dissociation BRET assay, I245A mutant
T2 construct: expressed in transfected cells; host or cells: HEK293
Protocol: as §1, §2, §3, §4, §5

hCB1 mutant S173A^2.60 = target: T3, hCB1 mutant S173A^2.60 (Homo sapiens, UniProt P21554, S173A); assay: pIRES G protein dissociation BRET assay, S173A mutant
T3 construct: expressed in transfected cells; host or cells: HEK293
Protocol: as §1, §2, §3, §4, §5

hCB1 mutant Y172A^2.59 = target: T4, hCB1 mutant Y172A^2.59 (Homo sapiens, UniProt P21554, Y172A); assay: pIRES G protein dissociation BRET assay, Y172A mutant
T4 construct: expressed in transfected cells; host or cells: HEK293
Protocol: as §1, §2, §3, §4, §5

hCB1 mutant L209A^3.45 = target: T5, hCB1 mutant L209A^3.45 (Homo sapiens, UniProt P21554, L209A); assay: pIRES G protein dissociation BRET assay, L209A mutant
T5 construct: expressed in transfected cells; host or cells: HEK293
Protocol: as §1, §2, §3, §4
To assay, the culture medium was aspirated and cells were washed with phosphate buffered saline (PBS) and replaced with BRET assay medium (phenol red free DMEM containing 25 mM HEPES and supplemented with 1 mg/mL bovine serum albumin; BSA, MP Biomedicals, Auckland, New Zealand) for 30 min prior to drug addition (serum starve). Drugs were prepared at 10 × concentration in BRET assay medium, combined in a polypropylene V-bottom plate, and incubated at 37° C prior to drug stimulation. […]

hCB1 mutant F408A^8.54 = target: T6, hCB1 mutant F408A^8.54 (Homo sapiens, UniProt P21554, F408A); assay: pIRES G protein dissociation BRET assay, F408A mutant
T6 construct: expressed in transfected cells; host or cells: HEK293
Protocol: as §1, §2, §3, §4, §5

hCB1 mutant F289A^5.53 = target: T7, hCB1 mutant F289A^5.53 (Homo sapiens, UniProt P21554, F289A); assay: pIRES G protein dissociation BRET assay, F289A mutant
T7 construct: expressed in transfected cells; host or cells: HEK293
Protocol: as §1, §2, §3, §4, §5

hCB1 mutant F237A^4.46 = target: T8, hCB1 mutant F237A^4.46 (Homo sapiens, UniProt P21554, F237A); assay: pIRES G protein dissociation BRET assay, F237A mutant
T8 construct: expressed in transfected cells; host or cells: HEK293
Protocol: as §1, §2, §3, §4, §5

hCB1 mutant R220A^3.56 = target: T9, hCB1 mutant R220A^3.56 (Homo sapiens, UniProt P21554, R220A); assay: pIRES G protein dissociation BRET assay, R220A mutant
T9 construct: expressed in transfected cells; host or cells: HEK293
Protocol: as §1, §2, §3, §4, §5

hCB1 mutant F191A^3.27 = target: T10, hCB1 mutant F191A^3.27 (Homo sapiens, UniProt P21554, F191A); assay: pIRES G protein dissociation BRET assay, F191A mutant
T10 construct: expressed in transfected cells; host or cells: HEK293
Protocol: as §1, §2, §3, §4, §5

[1] = 10 μM CP55940 in the presence of 10 μM ZCZ011
[2] = in the presence of 10 μM GAT228
[3] = in the presence of 10 μM GAT229
[4] = top of the curve (maximal response)

T9 sequence (P21554 whole entry R220A): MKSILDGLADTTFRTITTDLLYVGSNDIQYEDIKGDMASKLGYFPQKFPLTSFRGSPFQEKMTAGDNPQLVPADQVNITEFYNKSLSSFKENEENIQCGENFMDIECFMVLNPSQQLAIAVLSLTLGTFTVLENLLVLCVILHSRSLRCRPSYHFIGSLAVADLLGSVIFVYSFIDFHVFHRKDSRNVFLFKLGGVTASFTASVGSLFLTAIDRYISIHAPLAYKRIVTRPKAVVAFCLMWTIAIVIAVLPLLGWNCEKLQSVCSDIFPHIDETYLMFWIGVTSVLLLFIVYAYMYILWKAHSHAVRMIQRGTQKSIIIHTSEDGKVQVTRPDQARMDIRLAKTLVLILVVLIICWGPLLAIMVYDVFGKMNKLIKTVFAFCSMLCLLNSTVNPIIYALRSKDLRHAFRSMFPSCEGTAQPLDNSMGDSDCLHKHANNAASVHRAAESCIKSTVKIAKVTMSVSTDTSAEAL
T10 sequence (P21554 whole entry F191A): as the sequence (P21554 whole entry R220A) above, with F191A, A220R counted along it
T7 sequence (P21554 whole entry F289A): as the sequence (P21554 whole entry R220A) above, with A220R, F289A counted along it
T1 sequence (P21554 whole entry K232A): as the sequence (P21554 whole entry R220A) above, with A220R, K232A counted along it
T2 sequence (P21554 whole entry I245A): as the sequence (P21554 whole entry R220A) above, with A220R, I245A counted along it
T5 sequence (P21554 whole entry L209A): as the sequence (P21554 whole entry R220A) above, with L209A, A220R counted along it
T8 sequence (P21554 whole entry F237A): as the sequence (P21554 whole entry R220A) above, with A220R, F237A counted along it
T3 sequence (P21554 whole entry S173A): as the sequence (P21554 whole entry R220A) above, with S173A, A220R counted along it
T6 sequence (P21554 whole entry F408A): as the sequence (P21554 whole entry R220A) above, with A220R, F408A counted along it
T4 sequence (P21554 whole entry Y172A): as the sequence (P21554 whole entry R220A) above, with Y172A, A220R counted along it

## CCCCCCC(C)(C)c1ccc([C@@H]2C[C@H](O)CC[C@H]2CCCO)c(O)c1 [CP55940]
hCB1 mutant K232A^4.41; [1]
  G protein dissociation, AUC, 10 μM CP55940 + 10 μM ZCZ011: −194.9 ± 7.2
hCB1 mutant K232A^4.41; 10 μM ligand alone
  G protein dissociation, AUC of 10 μM compound (maximal response): −167.7 ± 9.6
hCB1 mutant K232A^4.41; [2]
  EMAX, CP55940 + 10 μM GAT228: −181.9 ± 8.6 ∆BRET.sec
hCB1 mutant K232A^4.41; [3]
  EMAX, CP55940 + 10 μM GAT229: −194.9 ± 9.0 ∆BRET.sec
hCB1 mutant K232A^4.41; [4]
  EMAX, CP55940 Alone: −160.6 ± 7.6 ∆BRET.sec
hCB1 mutant I245A^4.54; [1]
  G protein dissociation, AUC, 10 μM CP55940 + 10 μM ZCZ011: −183.2 ± 7.2
hCB1 mutant I245A^4.54; [2]
  EMAX, CP55940 + 10 μM GAT228: −163.7 ± 8.2 ∆BRET.sec
hCB1 mutant I245A^4.54; [3]
  EMAX, CP55940 + 10 μM GAT229: −182.9 ± 7.0 ∆BRET.sec
hCB1 mutant I245A^4.54; [4]
  EMAX, CP55940 Alone: −150.1 ± 9.8 ∆BRET.sec
hCB1 mutant S173A^2.60; [1]
  G protein dissociation, AUC, 10 μM CP55940 + 10 μM ZCZ011: −186.8 ± 5.5
hCB1 mutant S173A^2.60; 10 μM ligand alone
  G protein dissociation, AUC of 10 μM compound (maximal response): −146.2 ± 5.5
hCB1 mutant S173A^2.60; [2]
  EMAX, CP55940 + 10 μM GAT228: −176.1 ± 6.9 ∆BRET.sec
hCB1 mutant S173A^2.60; [3]
  EMAX, CP55940 + 10 μM GAT229: −186.4 ± 7.5 ∆BRET.sec
hCB1 mutant S173A^2.60; [4]
  EMAX, CP55940 Alone: −143.0 ± 5.7 ∆BRET.sec
hCB1 mutant Y172A^2.59; [1]
  G protein dissociation, AUC, 10 μM CP55940 + 10 μM ZCZ011: −305.2 ± 5.7
hCB1 mutant Y172A^2.59; 10 μM ligand alone
  G protein dissociation, AUC of 10 μM compound (maximal response): −284.7 ± 8.4
hCB1 mutant Y172A^2.59; [2]
  EMAX, CP55940 + 10 μM GAT228: −298.9 ± 5.4 ∆BRET.sec
hCB1 mutant Y172A^2.59; [3]
  EMAX, CP55940 + 10 μM GAT229: −309.0 ± 3.5 ∆BRET.sec
hCB1 mutant Y172A^2.59; [4]
  EMAX, CP55940 Alone: −273.2 ± 6.9 ∆BRET.sec
hCB1 mutant L209A^3.45; [1]
  G protein dissociation, AUC, 10 μM CP55940 + 10 μM ZCZ011: −71.3 ± 4.2
hCB1 mutant L209A^3.45; 10 μM ligand alone
  G protein dissociation, AUC of 10 μM compound (maximal response): −42.7 ± 2.8
hCB1 mutant L209A^3.45; [2]
  EMAX, CP55940 + 10 μM GAT228: −43.2 ± 4.5 ∆BRET.sec
hCB1 mutant L209A^3.45; [3]
  EMAX, CP55940 + 10 μM GAT229: −51.9 ± 2.8 ∆BRET.sec
hCB1 mutant L209A^3.45; [4]
  EMAX, CP55940 Alone: −39.8 ± 1.1 ∆BRET.sec
hCB1 mutant F408A^8.54; [1]
  G protein dissociation, AUC, 10 μM CP55940 + 10 μM ZCZ011: −159.7 ± 13.4
hCB1 mutant F408A^8.54; 10 μM ligand alone
  G protein dissociation, AUC of 10 μM compound (maximal response): −131.7 ± 10.4
hCB1 mutant F408A^8.54; [2]
  EMAX, CP55940 + 10 μM GAT228: −148.4 ± 11.4 ∆BRET.sec
hCB1 mutant F408A^8.54; [3]
  EMAX, CP55940 + 10 μM GAT229: −154.0 ± 14.5 ∆BRET.sec
hCB1 mutant F408A^8.54; [4]
  EMAX, CP55940 Alone: −128.6 ± 12.1 ∆BRET.sec
hCB1 mutant F289A^5.53; [1]
  G protein dissociation, AUC, 10 μM CP55940 + 10 μM ZCZ011: −167.8 ± 6.9
hCB1 mutant F289A^5.53; [2]
  EMAX, CP55940 + 10 μM GAT228: −156.7 ± 5.3 ∆BRET.sec
hCB1 mutant F289A^5.53; [3]
  EMAX, CP55940 + 10 μM GAT229: −161.1 ± 6.5 ∆BRET.sec
hCB1 mutant F289A^5.53; [4]
  EMAX, CP55940 Alone: −145.4 ± 5.7 ∆BRET.sec
hCB1 mutant F237A^4.46; [1]
  G protein dissociation, AUC, 10 μM CP55940 + 10 μM ZCZ011: −85.2 ± 9.9
hCB1 mutant F237A^4.46; 10 μM ligand alone
  G protein dissociation, AUC of 10 μM compound (maximal response): −69.8 ± 6.5
hCB1 mutant F237A^4.46; [2]
  EMAX, CP55940 + 10 μM GAT228: −69.4 ± 6.4 ∆BRET.sec
hCB1 mutant F237A^4.46; [3]
  EMAX, CP55940 + 10 μM GAT229: −67.4 ± 8.3 ∆BRET.sec
hCB1 mutant F237A^4.46; [4]
  EMAX, CP55940 Alone: −69.8 ± 6.7 ∆BRET.sec
hCB1 mutant R220A^3.56; [1]
  G protein dissociation, AUC, 10 μM CP55940 + 10 μM ZCZ011: −137.8 ± 5.0
hCB1 mutant R220A^3.56; 10 μM ligand alone
  G protein dissociation, AUC of 10 μM compound (maximal response): −112.1 ± 2.9
hCB1 mutant R220A^3.56; [2]
  EMAX, CP55940 + 10 μM GAT228: −140.1 ± 13.5 ∆BRET.sec
hCB1 mutant R220A^3.56; [3]
  EMAX, CP55940 + 10 μM GAT229: −144.6 ± 10.4 ∆BRET.sec
hCB1 mutant R220A^3.56; [4]
  EMAX, CP55940 Alone: −110.8 ± 2.8 ∆BRET.sec
hCB1 mutant F191A^3.27; [1]
  G protein dissociation, AUC, 10 μM CP55940 + 10 μM ZCZ011: −134.7 ± 12.4
hCB1 mutant F191A^3.27; 10 μM ligand alone
  G protein dissociation, AUC of 10 μM compound (maximal response): −117.8 ± 7.5
hCB1 mutant F191A^3.27; [2]
  EMAX, CP55940 + 10 μM GAT228: −123.9 ± 7.4 ∆BRET.sec
hCB1 mutant F191A^3.27; [3]
  EMAX, CP55940 + 10 μM GAT229: −119.1 ± 7.8 ∆BRET.sec
hCB1 mutant F191A^3.27; [4]
  EMAX, CP55940 Alone: −117.3 ± 6.1 ∆BRET.sec

— paper PMC10892375, “Determination of the Cannabinoid CB1 Receptor’s Positive Allosteric Modulator Binding Site through Mutagenesis Studies” (Pharmaceuticals, 2024)
